Measurements as given in publication PMC6891331, “Virescenosides from the Holothurian-Associated Fungus Acremonium striatisporum Kmm 4401” (Marine Drugs, 2019).
pIC50: −log10 of the molar value.

biological target: urease (Canavalia ensiformis, UniProt P07374); assay: urease inhibition, ammonia production by indophenol method; type: biochemical
Sequence (P07374 whole entry, looked up): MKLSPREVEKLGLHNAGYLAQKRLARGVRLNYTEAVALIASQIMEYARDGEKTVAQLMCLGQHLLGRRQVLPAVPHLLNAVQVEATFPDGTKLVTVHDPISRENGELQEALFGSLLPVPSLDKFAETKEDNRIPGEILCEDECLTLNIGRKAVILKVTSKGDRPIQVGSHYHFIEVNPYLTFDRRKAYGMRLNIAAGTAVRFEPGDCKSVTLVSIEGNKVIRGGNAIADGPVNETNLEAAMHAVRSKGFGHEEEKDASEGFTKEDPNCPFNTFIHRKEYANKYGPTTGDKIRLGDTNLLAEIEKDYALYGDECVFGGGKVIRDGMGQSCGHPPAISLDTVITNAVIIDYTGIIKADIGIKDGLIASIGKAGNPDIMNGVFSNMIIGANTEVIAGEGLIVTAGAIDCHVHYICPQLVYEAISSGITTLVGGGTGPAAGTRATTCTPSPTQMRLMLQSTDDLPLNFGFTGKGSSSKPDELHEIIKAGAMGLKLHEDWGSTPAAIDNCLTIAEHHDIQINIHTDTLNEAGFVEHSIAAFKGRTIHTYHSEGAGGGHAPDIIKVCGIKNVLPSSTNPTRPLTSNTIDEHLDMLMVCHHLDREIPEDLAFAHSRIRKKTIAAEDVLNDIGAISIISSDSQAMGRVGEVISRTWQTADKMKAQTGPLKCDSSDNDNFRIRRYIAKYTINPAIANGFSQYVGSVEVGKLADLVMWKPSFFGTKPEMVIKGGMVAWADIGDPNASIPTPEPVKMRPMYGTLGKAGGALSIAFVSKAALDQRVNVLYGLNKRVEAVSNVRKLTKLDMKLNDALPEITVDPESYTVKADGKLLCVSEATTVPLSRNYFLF

Row | Structure (SMILES) | pIC50
1 | C=CC1(C)CCC2C(=CCC3C2(C)CC(O)C(O)C3(C)CO)C1 (stereo not drawn) [compound 14, aglycon of virescenoside A] | 3.86
2 | NC(N)=S [Thiourea, reference compound] | 4.64
3 | C=CC1(C)CCC2=C(CCC3C2(C)CCC(O)C3(C)CO)C1 (stereo not drawn) [compound 15, aglycon of virescenoside B] | 3.90
